Experimental data reported in US4206221A, “Cephalomannine and its use in treating leukemic tumors” (priority 1979, dated 1980).
Converted amounts (≈) assume the structure as drawn. Where two headings read alike, the source gives them in different places.

What was measured:
leukemia [1] = conditions: background, literature; cited from earlier work
[2] = test system: lymphocytic leukemia cells of the strain P388; assay: P388 lymphocytic leukemia implanted in mice, survival time (T/C), National Cancer Institute Protocol 1.200; assay type: in vivo; conditions: intraperitoneal, once a day for 9 days, female DBA/2 mice, 125% or above considered active
From the text: The effectiveness of alkaloid compounds against lymphocytic leukemia cells of the strain P388 implanted in mice is another method of determining activity. These assays are made according to the National Cancer Institute Protocol 1.200 described in Geran et al. referred to above. The usefulness of cephalomannine as compared to taxol was ascertained by assaying Fractions K263 and K264 from Example 1 by this procedure. Starting 24 hr. after the tumor implantation, previously determined dosages of each compound were injected intraperitoneally once a day for 9 days. Survival time of treated leukemic mice is compared to that of untreated leukemic mice (T/C×100). A T/C value of 100% indicated no activity. A T/C value greater than 100% means that the treated mice are surviving longer than the control mice. A compound giving a T/C value greater than 125% is indicative of activity as defined by the NCI Protocols, above.
^1 All mice were female, DBA/2.
^2 The injection vehicle was saline + Tween 80 + alcohol.
^3 One intraperitoneal injection per day for 9 days.
^4 T/C = mean survival time of test animals/mean survival time of […]

KB cell culture = assay: cells; assay type: cell-based; conditions: for IC50: Homo sapiens, KB, 72 h, read-out: ED 50 (dose that inhibits growth to 50% of control growth); for activity in KB cell culture (in words): assay of extract and of fractions during isolation
Procedure: The chemotherapeutic activities of the fractions obtained in the isolation procedure may be determined by a KB Cell Culture Screen in accordance with the National Cancer Institute Protocol 1.600 [Geran et al., Cancer Chemother. Rep., Part 3, 3: 17 (1972)]. […] Such a dose is referred to as ED 50 and activity is indicated for ED 50 levels of ≤30 μg./ml.

leukemia [3] = assay: activity against leukemia in animals (general statement); conditions: in vivo

SMILES	antileukemic / antitumor / chemotherapeutic activity (in words) (leukemia [1])	T/C (mean survival time of test animals/mean survival time of control animals) ([2]; 1.40 mg./kg./inj.) [%]	T/C (mean survival time of test animals/mean survival time of control animals) ([2]; 2.20 mg./kg./inj.) [%]	IC50 (KB cell culture; 3 days after drug addition, active if ED 50 ≤30 μg./ml.) [ng/mL]	activity in KB cell culture (in words) (KB cell culture)	T/C (mean survival time of test animals/mean survival time of control animals) ([2]; 1.00 mg./kg./inj.) [%]	T/C (mean survival time of test animals/mean survival time of control animals) ([2]; 3.30 mg./kg./inj.) [%]	IC50 (KB cell culture) [ng/mL]	activity against leukemia in animals (in words) (leukemia [3])
CC(=O)O[C@H]1C(=O)[C@@]2(C)[C@H]([C@H](OC(=O)c3ccccc3)[C@]3(O)C[C@H](OC(=O)C(O)C(NC(=O)c4ccccc4)c4ccccc4)C(C)=C1C3(C)C)[C@]1(OC(C)=O)CO[C@@H]1C[C@@H]2O (single isomer, unassigned) [taxol, reference compound]	antileukemic and antitumor agent	148	152	1.2 (≈ 1.41 nM)	showed activity				
CC=C(C)C(=O)NC(c1ccccc1)C(O)C(=O)O[C@H]1C[C@@]2(O)[C@@H](OC(=O)c3ccccc3)[C@@H]3[C@]4(OC(C)=O)CO[C@@H]4C[C@H](O)[C@@]3(C)C(=O)[C@H](OC(C)=O)C(=C1C)C2(C)C (single isomer, unassigned) [cephalomannine]		159	162		showed activity	152	180	3.8 (≈ 4.57 nM)	demonstrates activity against leukemia in animals
